The source of these data is ChEMBL document CHEMBL1201862, “PubChem BioAssay data set” (2004).

The structures appear in SMILES notation. The source made the active and inactive calls.

Experiment [1] concerns the target T1, Bcl-2-related protein A1 (Mus musculus, UniProt Q07440).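 Also: confirmatory dose–response counterscreen on Bfl-1, used to check hits from a UBC13 polyubiquitin inhibitor campaign.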
T1 sequence (Q07440 whole entry): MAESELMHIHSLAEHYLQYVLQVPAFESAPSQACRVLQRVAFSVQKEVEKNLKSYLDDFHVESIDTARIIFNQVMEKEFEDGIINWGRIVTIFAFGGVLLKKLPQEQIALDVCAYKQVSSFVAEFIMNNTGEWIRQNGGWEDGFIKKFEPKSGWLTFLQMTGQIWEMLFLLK
It is filed as functional.

In experiment [2] the target is T2, Ubiquitin-conjugating enzyme E2 N (Homo sapiens, UniProt P61088).
T2 sequence (P61088 whole entry): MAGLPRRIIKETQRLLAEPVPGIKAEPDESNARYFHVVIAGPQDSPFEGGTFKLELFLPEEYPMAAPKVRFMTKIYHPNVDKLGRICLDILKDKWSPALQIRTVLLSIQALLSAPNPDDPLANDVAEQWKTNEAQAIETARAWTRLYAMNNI
It counts as functional.

Experiment [3] addresses T3, Type-1 angiotensin II receptor (Homo sapiens, UniProt P30556).
T3 sequence (P30556 whole entry): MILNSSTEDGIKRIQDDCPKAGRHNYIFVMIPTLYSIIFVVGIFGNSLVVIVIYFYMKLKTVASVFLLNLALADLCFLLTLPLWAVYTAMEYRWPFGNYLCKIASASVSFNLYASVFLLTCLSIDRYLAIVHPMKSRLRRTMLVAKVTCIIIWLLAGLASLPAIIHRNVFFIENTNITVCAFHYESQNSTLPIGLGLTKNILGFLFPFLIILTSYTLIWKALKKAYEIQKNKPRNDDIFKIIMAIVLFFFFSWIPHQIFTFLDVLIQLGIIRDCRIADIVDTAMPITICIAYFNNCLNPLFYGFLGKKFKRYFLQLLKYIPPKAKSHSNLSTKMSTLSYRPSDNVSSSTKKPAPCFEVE
The experiment in a line: AT1 receptor agonists, dose response, selectivity assay for APJ receptor agonist project, cell-based, uHTS hits (AID 488865).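 Also: beta-arrestin recruitment to AT1 measured by enzyme fragment complementation luminescence.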 It counts as functional.

For experiment [4], the target named is T4, DNA repair protein RAD52 homolog (Homo sapiens, UniProt P43351).
T4 sequence (P43351 whole entry): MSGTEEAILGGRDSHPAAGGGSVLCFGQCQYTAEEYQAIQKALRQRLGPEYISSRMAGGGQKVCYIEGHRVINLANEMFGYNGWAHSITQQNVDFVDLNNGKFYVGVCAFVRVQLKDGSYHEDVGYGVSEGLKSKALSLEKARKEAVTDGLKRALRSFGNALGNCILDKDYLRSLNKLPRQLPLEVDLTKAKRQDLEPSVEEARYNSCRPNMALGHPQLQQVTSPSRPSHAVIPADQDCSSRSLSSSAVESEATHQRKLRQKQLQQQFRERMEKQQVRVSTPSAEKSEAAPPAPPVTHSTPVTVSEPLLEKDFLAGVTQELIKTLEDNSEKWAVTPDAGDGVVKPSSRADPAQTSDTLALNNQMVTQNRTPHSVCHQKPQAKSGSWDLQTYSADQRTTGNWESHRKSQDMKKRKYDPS
It counts as functional, biochemical.

Experiment [5] has as its target T2, Ubiquitin-conjugating enzyme E2 N. It is filed as functional. The source holds these as a separate data set.
Experiment [6] has as its target T5, Kappa-type opioid receptor (Homo sapiens, UniProt P41145). The experiment in a line: SAR analysis of small molecule agonists of the kappa opioid receptor via a luminescent beta-arrestin assay - Set 3. [Related pubchem assays (depositor defined):AID1777, AID1785, AID1786, AID1966, AID2133, AID2136, AID2284, AID2500]. It is filed as functional.
Experiment [7] concerns the target T5, Kappa-type opioid receptor. The experiment in a line: KOR agonist analogs, arrestin-GFP redistribution, SAR follow-up, imaging, image-based, set 3 (AID 488833). It is filed as functional.
Experiment [8] addresses Delta-type opioid receptor (Homo sapiens, UniProt P41143). Put plainly: SAR Analysis of Agonists of the DOR Receptor using an Image-Based Assay - Set 3. [Related pubchem assays (depositor defined):AID1777, AID1786]. It counts as functional.
The target in experiment [9] is Mu-type opioid receptor (Homo sapiens, UniProt P35372). Put plainly: SAR Analysis of Agonists of the MOR Receptor using an Image-Based Assay - Set 3. [Related pubchem assays (depositor defined):AID1777, AID1785, AID1786, AID1966, AID2133, AID2136, AID2284, AID2285, AID2352]. It counts as functional.
The test system of experiment [10] is T-cell. The experiment in a line: inhibitors of CD8+ T cell–vesicle binding, dose response, mouse 2C CD8+ T cells, flow cytometry (AID 485284). It is filed as functional. (In flow cytometry, cells or beads pass a laser one at a time.)
The nature of experiment [11]: Luminescence Cell-Based Dose Response HTS to Identify Activators of Luciferase Translation or Activity in H4 […] Cells. [Related pubchem assays: 1829 (Project Summary), 1814 (Primary HTS)]. It counts as functional.
Experiment [12] deals with H4. The experiment in a line: Luminescence Cell-Based Dose Response HTS to Identify Activators of 5'UTR Stem-Loop Driven Prion Protein mRNA Translation in H4 Neuroglioblastoma Cells. [Related pubchem assays: 1829 (Project Summary), 1814 (Primary HTS)]. It counts as functional. Conditions: Homo sapiens.
Experiment [13] in a line: Luminescence Cell-Based Dose Confirmation HTS to Identify Activators of 5'UTR Stem-Loop Driven Alpha-Synuclein mRNA Translation in H4 Neuroglioblastoma Cells. [Related pubchem assays: 1829 (Project Summary), 1814 (Primary HTS)]. It is filed as functional.
The nature of experiment [14]: cytotoxicity in NIH/3T3 mouse fibroblasts, dose response, cytotoxicity control, cell-based, mouse embryonic fibroblasts, dry powder, set 2 (AID 493247). Conditions: Fibroblast. It counts as functional.
Experiment [15] has as its system Trypanosoma cruzi. The experiment in a line: growth inhibition of intracellular Trypanosoma cruzi, dose response, cell-based, plate reader, dry powder, set 3 (AID 493197). It counts as functional.
For experiment [16], the target named is Voltage-dependent T-type calcium channel subunit alpha-1H (Homo sapiens, UniProt O95180). Put plainly: Cav3.2 T-type channel inhibitors, cell-based, synthetic library set 1, calcium flux (AID 493022). It is filed as functional. (Calcium flux is commonly read through the fluorescence of an indicator in the cells.)
Sequence of Voltage-dependent T-type calcium channel subunit alpha-1H (O95180 whole entry): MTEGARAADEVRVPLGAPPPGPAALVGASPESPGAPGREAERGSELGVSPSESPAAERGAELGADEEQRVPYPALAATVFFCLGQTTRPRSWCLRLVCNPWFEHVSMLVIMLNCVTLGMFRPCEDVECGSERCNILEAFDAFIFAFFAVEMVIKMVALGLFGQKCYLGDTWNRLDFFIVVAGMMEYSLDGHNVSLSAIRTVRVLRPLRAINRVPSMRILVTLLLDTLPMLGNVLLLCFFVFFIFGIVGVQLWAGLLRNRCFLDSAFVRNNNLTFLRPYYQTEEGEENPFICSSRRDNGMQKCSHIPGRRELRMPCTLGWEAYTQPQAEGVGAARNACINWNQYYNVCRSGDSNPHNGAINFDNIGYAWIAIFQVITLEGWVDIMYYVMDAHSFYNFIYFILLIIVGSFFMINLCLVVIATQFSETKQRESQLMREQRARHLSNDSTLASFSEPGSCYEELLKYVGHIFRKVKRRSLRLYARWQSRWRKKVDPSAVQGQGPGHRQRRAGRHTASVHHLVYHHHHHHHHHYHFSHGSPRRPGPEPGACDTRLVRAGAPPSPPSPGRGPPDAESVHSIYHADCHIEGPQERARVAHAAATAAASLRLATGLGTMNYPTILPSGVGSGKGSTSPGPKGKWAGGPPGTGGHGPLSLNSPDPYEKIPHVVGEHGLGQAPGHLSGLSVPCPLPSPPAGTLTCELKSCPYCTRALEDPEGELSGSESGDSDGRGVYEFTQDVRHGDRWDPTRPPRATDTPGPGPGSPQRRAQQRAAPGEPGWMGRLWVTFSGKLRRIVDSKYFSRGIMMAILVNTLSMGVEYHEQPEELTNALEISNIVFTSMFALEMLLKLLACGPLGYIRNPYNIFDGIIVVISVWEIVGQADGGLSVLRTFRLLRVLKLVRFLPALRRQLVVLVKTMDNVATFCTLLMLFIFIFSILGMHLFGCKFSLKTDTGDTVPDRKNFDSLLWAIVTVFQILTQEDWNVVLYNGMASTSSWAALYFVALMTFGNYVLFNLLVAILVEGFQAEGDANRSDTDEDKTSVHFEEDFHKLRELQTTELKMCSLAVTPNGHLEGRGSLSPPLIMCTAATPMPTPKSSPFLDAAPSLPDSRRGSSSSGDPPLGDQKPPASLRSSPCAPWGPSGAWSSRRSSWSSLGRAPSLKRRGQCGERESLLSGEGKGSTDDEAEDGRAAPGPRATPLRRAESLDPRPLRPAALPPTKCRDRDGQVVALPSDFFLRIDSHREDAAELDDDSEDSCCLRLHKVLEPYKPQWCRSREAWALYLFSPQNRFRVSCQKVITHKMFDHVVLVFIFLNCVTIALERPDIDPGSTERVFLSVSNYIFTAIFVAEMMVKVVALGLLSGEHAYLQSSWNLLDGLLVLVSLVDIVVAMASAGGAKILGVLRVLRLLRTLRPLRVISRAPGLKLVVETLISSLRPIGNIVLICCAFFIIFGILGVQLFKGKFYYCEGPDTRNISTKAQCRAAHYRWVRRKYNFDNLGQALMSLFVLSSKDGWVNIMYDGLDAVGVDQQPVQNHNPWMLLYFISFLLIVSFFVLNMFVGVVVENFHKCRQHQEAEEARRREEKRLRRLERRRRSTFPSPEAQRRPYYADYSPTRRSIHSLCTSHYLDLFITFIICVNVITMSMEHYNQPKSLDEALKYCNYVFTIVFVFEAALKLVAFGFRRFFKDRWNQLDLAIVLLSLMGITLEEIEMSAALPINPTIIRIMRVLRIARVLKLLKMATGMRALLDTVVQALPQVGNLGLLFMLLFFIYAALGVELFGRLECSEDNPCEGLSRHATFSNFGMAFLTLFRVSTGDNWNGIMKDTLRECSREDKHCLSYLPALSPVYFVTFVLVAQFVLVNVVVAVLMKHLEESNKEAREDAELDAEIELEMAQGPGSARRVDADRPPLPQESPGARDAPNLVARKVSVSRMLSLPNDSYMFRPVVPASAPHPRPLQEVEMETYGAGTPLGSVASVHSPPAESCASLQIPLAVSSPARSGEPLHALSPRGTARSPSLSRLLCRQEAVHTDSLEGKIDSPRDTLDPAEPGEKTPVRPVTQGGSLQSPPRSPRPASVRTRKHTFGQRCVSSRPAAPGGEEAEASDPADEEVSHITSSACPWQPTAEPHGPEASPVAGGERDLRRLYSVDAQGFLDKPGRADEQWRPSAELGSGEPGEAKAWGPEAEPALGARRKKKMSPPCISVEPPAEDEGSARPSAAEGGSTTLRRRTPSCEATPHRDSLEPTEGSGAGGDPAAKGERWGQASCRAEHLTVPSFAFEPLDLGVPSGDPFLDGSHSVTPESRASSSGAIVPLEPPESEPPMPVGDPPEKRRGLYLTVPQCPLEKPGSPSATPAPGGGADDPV
Experiment [17] addresses DNA damage-inducible transcript 3 protein (Mus musculus, UniProt P35639). It counts as functional, Cricetulus griseus.
The target in experiment [18] is X-box-binding protein 1 (Homo sapiens, UniProt P17861). It is filed as functional, Cricetulus griseus.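 Also: confirmatory dose-response counter-screen serving a CHOP assay.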
A short description of experiment [19]: Vero E6 cell cytotoxicity, dose response, cytotoxicity control for non-replicating M. tuberculosis project, secondary assay (AID 492998). It counts as functional, VeroE6. As to conditions: Vero C1008.
In experiment [20] the target is T6, Coagulation factor XII (Homo sapiens, UniProt P00748).
T6 sequence (P00748 whole entry): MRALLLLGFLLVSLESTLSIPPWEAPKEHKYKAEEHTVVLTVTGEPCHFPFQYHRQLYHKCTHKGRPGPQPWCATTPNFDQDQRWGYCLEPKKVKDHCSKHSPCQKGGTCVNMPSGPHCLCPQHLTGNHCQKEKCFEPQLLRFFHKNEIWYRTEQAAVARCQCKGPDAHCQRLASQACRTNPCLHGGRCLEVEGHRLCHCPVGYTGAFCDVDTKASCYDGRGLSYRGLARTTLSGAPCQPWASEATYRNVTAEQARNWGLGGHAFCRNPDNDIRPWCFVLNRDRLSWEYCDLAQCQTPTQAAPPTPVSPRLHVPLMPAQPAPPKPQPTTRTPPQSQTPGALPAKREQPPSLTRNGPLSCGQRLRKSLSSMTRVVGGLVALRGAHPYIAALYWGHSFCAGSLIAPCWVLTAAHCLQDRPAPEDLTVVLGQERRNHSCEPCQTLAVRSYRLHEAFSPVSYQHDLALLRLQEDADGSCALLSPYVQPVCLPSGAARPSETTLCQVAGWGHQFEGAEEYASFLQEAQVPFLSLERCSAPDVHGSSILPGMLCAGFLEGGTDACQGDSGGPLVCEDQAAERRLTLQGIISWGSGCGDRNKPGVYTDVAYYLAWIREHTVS
The experiment in a line: FXIIa inhibitor potency, concentration-response, biochemical (AID 716). It counts as functional.

In experiment [21] the target is Potassium voltage-gated channel subfamily KQT member 2 (Rattus norvegicus, UniProt O88943). Put plainly: retigabine-insensitive KCNQ2 potentiators, concentration-response, dose response, cell-based, retigabine-insensitive compounds (AID 2654). It is filed as functional.
Sequence of Potassium voltage-gated channel subfamily KQT member 2 (O88943 whole entry): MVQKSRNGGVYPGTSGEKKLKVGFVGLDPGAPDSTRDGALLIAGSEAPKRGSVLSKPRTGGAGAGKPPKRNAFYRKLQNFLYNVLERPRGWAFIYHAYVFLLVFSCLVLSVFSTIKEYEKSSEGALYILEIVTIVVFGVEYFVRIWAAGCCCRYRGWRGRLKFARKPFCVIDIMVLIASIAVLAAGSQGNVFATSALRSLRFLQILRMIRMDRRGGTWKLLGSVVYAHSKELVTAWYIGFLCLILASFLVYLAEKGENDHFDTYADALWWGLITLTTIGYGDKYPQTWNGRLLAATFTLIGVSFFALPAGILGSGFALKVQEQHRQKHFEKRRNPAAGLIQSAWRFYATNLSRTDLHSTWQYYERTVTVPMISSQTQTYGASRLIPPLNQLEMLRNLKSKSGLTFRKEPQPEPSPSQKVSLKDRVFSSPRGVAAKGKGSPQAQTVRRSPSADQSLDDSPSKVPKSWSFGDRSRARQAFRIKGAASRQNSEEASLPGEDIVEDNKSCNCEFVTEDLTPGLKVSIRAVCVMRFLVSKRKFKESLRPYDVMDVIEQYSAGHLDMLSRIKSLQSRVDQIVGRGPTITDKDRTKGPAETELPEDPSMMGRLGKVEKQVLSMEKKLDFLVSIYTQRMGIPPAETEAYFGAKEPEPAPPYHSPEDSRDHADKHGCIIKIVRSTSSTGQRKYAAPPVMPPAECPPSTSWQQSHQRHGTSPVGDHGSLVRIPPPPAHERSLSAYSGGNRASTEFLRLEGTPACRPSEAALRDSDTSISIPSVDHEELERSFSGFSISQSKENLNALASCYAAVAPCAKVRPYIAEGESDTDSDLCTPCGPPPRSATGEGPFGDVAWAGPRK
For experiment [22], the target named is T7, Tyrosine-protein phosphatase non-receptor type 22 (Homo sapiens, UniProt Q9Y2R2).
T7 sequence (Q9Y2R2 whole entry): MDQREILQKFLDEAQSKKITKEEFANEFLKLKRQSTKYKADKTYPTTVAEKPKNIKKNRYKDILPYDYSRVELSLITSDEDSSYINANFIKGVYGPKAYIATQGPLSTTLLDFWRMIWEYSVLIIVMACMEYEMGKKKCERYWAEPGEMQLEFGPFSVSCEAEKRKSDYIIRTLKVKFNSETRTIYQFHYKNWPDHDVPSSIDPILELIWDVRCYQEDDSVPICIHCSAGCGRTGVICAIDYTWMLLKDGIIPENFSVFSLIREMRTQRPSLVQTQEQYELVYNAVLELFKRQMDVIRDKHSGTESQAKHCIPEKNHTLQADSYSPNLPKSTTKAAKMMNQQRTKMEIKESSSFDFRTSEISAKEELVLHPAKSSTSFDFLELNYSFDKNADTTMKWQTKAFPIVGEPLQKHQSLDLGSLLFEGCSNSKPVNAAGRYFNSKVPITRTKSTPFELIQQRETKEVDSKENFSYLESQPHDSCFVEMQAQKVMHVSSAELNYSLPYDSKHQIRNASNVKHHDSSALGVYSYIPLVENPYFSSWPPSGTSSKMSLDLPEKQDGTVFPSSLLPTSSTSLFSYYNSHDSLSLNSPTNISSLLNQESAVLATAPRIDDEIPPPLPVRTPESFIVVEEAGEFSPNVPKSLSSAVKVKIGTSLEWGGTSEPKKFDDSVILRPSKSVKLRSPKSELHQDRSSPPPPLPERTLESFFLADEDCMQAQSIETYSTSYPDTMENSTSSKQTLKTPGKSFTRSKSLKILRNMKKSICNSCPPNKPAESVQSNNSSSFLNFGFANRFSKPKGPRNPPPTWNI
Put plainly: LYP (PTPN22) phosphatase inhibitor potency, SAR follow-up, biochemical, pCAP fluorogenic substrate, fluorescence, set 3 (AID 449727). It is filed as functional.

In experiment [23] the target is T7, Tyrosine-protein phosphatase non-receptor type 22. Put plainly: PubChem AID 2135.
The target is the same in experiment [24]. The experiment in a line: PubChem AID 2140.
Experiment [25] addresses Eukaryotic translation initiation factor 4H (Homo sapiens, UniProt Q15056). The experiment in a line: eIF4H inhibition in translation initiation, SAR follow-up (AID 435011). It is filed as functional.
Experiment [26] concerns the target Polyadenylate-binding protein 1 (Homo sapiens, UniProt P11940). Put plainly: PABP inhibition in translation initiation, SAR follow-up (AID 435018). It counts as functional.

T5 sequence (P41145 whole entry): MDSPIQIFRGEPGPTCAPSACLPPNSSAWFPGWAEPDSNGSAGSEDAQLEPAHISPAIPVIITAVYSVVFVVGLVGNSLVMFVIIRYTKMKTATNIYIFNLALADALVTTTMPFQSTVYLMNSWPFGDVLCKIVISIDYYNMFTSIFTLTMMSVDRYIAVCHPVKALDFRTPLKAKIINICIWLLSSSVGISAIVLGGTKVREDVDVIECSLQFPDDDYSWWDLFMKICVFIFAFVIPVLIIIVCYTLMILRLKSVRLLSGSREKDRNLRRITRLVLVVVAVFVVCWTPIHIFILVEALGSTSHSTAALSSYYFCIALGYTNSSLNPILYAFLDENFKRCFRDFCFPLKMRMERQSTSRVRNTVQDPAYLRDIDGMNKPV
Sequence of Polyadenylate-binding protein 1 (P11940 whole entry): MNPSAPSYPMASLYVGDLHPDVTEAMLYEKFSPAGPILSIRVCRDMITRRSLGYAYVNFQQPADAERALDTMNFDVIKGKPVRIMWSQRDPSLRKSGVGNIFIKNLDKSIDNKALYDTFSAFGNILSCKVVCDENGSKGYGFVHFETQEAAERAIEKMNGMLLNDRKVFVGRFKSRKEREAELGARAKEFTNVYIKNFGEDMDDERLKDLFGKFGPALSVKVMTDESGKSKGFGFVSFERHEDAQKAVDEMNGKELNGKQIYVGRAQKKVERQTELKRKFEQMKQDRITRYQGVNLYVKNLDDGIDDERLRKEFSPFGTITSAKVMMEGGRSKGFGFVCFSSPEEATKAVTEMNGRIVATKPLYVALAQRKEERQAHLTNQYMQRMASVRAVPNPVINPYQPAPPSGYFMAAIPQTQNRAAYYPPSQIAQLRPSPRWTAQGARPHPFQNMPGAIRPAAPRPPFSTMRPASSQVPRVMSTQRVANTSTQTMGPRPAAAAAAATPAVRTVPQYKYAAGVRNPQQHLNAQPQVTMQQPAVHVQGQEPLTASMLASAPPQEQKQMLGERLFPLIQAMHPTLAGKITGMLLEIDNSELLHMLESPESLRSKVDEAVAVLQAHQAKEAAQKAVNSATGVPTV
Sequence of Delta-type opioid receptor (P41143 whole entry): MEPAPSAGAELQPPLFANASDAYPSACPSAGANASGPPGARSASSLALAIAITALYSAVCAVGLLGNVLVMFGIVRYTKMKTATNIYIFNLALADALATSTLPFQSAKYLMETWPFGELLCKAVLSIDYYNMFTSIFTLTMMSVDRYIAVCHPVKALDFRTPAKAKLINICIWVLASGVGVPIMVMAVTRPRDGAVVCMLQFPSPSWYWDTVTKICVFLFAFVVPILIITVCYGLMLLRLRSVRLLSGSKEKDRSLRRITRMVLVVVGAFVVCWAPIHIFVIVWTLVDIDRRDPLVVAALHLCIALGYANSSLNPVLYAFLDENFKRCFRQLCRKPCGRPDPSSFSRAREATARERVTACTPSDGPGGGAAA
Sequence of DNA damage-inducible transcript 3 protein (P35639 whole entry): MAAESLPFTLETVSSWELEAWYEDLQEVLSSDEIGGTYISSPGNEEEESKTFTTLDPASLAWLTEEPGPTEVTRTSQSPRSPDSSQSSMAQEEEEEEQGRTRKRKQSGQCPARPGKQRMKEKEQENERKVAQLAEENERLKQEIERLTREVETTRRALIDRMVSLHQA

The IC50 is the concentration that gives 50% inhibition. Broadly, the EC50 is the midpoint of the concentration-response curve. Usually AC50 stands for the midpoint of the concentration-response curve, whichever way the signal moves. In the case of `COc1cccc2sc(N(CCCN(C)C)C(=O)c3ccc(S(=O)(=O)N4CCc5ccccc5C4)cc3)nc12`, the IC50 is > 20 µM (inactive) in experiment [1], 13.9 µM (active) in [2] and 10.8 µM (active) in experiment [5]. The EC50 in experiment [3] is > 100 µM (inactive). Also, the AC50 in experiment [4] was 23.1 µM (active).
As to `Fc1ccc(CSc2nnc(-c3ccccn3)n2Cc2cccs2)c(C(F)(F)F)c1`, the EC50 is 4.46 µM (active) in experiment [6], 2.26 µM (active) in experiment [7], > 32 µM (inactive) in experiment [8] and > 32 µM (inactive) in experiment [9].
With `O=C(CC1=NCCNC(c2ccccc2)C1)c1ccccc1O` (stereo unspecified), the EC50 in experiment [10] is 0.565 µM (active); in experiment [11], 43.1 µM (active); in experiment [12], 67.6 µM (active); in experiment [13], 69.3 µM (active).
In the case of `CN(Cc1ccccc1)C(=O)C1CCCN(Cc2ccc(Br)cc2)C1` (stereo unspecified), the results for the AC50 in experiment [14] and in experiment [15] were 74.3 µM (active) and 3.01 µM (active), respectively.
In the case of `O=C(COc1ccc(Cl)cc1)Nc1nnc(-c2ccc(F)c(F)c2)o1`, the EC50 in experiment [16] is 1.5 µM (active).
In general, CC50 refers to the concentration giving 50% cytotoxicity. For `O=C1NN(c2ccccc2)C(=O)/C1=C/c1ccc(Sc2ccc(Cl)cc2)o1`, the “Absolute IC50 (CHOP)” value in [17] was 10 µM. The “Absolute IC50 (XBP1)” value in experiment [18] was 10 µM. Besides, the CC50 in experiment [19] was > 20 µM (active).
On to `O=C(CN1C(=O)c2ccccc2S1(=O)=O)N1CCN(c2ccccc2F)CC1`, for which the IC50 in experiment [20] was > 50 µM (inactive).
`O=C(NCc1ccc(Cl)cc1Cl)Nc1cncc(F)c1`: in [21], the EC50 is 8.64 µM (active).
For the molecule `CCOc1ccc2nc(NC(=O)CSC3=Nc4sc(C)c(C)c4C(=O)C3)sc2c1`, the figures for the IC50 in [22], in experiment [23] and in experiment [24] were > 100 µM (inactive), > 100 µM (inactive) and 43.4 µM (active), respectively.
`Cc1cccc(NC(=O)CSc2ccc(-c3ccco3)nn2)c1C`: the half-maximal inhibitory concentration (IC50) in experiment [25] was 71.5 µM (active); in [26], > 100 µM (inactive).
